These are literature values, as cited in US20200170950A1, “COMPOSITIONS COMPRISING A CANNABINOID OR A CANNABIS-DERIVED COMPOUND, METHODS OF MAKING AND USE” (priority 2018, published 2020).

Each structure is given as a SMILES string.

The target of one series is T1, 5-HT1A receptor (Homo sapiens, UniProt P08908).
T1 sequence (P08908 1-422): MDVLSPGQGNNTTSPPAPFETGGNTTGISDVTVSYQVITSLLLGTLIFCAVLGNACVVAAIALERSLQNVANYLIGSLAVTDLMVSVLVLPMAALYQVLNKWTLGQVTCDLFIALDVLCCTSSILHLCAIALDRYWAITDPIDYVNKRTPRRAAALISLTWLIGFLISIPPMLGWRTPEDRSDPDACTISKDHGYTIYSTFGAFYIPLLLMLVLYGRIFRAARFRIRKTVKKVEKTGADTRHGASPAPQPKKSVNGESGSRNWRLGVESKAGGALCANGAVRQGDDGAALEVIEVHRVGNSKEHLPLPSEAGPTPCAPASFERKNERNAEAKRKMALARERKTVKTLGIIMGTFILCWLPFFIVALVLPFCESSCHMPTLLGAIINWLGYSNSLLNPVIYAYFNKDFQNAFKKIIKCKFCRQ

For a further series, the target named is CB1 receptor (Homo sapiens, UniProt P21554).
Chain of CB1 receptor (P21554 whole entry): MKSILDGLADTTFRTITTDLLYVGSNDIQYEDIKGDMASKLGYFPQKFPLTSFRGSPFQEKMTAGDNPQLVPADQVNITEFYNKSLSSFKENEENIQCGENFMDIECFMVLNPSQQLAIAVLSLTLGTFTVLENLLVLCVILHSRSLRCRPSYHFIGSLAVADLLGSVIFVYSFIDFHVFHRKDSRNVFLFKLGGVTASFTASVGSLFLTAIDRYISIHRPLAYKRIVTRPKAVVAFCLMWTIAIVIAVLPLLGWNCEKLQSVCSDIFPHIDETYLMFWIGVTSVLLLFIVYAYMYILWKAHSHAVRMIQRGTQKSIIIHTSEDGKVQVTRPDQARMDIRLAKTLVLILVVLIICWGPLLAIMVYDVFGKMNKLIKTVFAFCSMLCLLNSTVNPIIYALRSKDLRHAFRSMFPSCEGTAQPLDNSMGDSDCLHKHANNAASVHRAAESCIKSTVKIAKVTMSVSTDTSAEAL
In another series the target is CB2 receptor (Homo sapiens, UniProt P34972).
Chain of CB2 receptor (P34972 whole entry): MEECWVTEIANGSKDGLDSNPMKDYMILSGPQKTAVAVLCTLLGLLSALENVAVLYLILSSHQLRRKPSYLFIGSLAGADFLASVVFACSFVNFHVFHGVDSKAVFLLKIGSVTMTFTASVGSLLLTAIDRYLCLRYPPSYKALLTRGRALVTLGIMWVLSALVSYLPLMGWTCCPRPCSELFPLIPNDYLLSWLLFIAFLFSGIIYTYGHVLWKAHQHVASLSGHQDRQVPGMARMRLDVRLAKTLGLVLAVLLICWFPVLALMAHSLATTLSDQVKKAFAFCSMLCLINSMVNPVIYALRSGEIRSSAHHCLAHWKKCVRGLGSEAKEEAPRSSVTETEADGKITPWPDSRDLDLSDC

For `CCCCCc1cc(O)c(C/C=C(\C)CCC=C(C)C)c(O)c1` [CBG, Cannabigerol], the “affinity, α2-adrenergic receptor agonist” value in the series with α2-adrenergic receptor was “high affinity”. For the same compound, the “affinity, 5-HT1A receptor antagonist” value at 5-HT1A receptor is given as “moderate affinity”. The “activity/affinity at CB1 receptor” value at CB1 receptor is “low affinity”. The “activity/affinity at CB2 receptor” value at CB2 receptor was “antagonist”.
For the compound `CCCCCc1cc(O)c2c(c1)OC(C)(C)c1ccc(C)cc1-2` [CBN, Cannabinol], on CB1 receptor, the “activity/affinity at CB1 receptor” value is “partial agonist”. Further, the “activity/affinity at CB2 receptor” value at CB2 receptor is reported as “higher affinity”.
